Laboratory results taken from patent US7951751B2, “Synergistic, crop plant-compatible herbicidal compositions comprising herbicides from the group of the benzoylpyrazoles” (Bayer Crop Science AG, priority 2005, dated 2011).

How the values were obtained:
STEME = assay: Herbicidal post-emergence action, greenhouse pot test, visual rating; type: in vivo; conditions: rated 3 to 4 weeks after treatment
Method: (§1) Seeds of monocotyledonous and dicotyledonous weed and crop plants are place into sandy loam in wood fiber pots or in plastic pots, covered with soil and cultivated in a greenhouse, including during the vegetation period outdoors outside of the greenhouse, under good growth conditions. 2-3 weeks after sowing, the test plants are treated at the one- to three-leaf stage. The test compounds, formulated as wettable powders (WP) or liquid (EC) are, in various dosages with a water application rate of 300 I/ha (converted), with added wetting agent (0.2 to 0.3%), sprayed onto the plants and the surface of the soil. 3 to 4 weeks after the treatment of the test plants, the effect of the preparations is rated visually in comparison to untreated controls (herbicidal effect in percent (%): 100% effect=plants have died, 0% effect=like control plants).
If it is additionally to be tested as to whether safeners can improve the plant compatibility of test substances in the case of crop plants, the following options are used for applying the safener: • seeds of the crop plants are, before sowing, dressed with the safener substance (the amount of safener is stated in percent, based on the weight of the seed) • before the application of the test substances, the crop plants are sprayed with the safener at a certain application rate per hectare (usually 1 day before the application of the test substances) • the safener is applied together with the test substance as a tank mix (the amount of safener is stated in g/ha or as a ratio, based on the herbicide).
By comparing the effect of the test substances on crop plants without or with safener treatment, it is possible to assess the effect of the safener substance.

summer wheat = assay: Crop plant compatibility (damage) post-emergence, with and without safener; type: in vivo
Method: as §1, with “plants). […]” for “plants).”

CCOC(=O)C1=NN(c2ccc(Cl)cc2Cl)C(C)(C(=O)OCC)C1 (stereo not drawn) [Component C1, mefenpyr-diethyl]
Activity against STEME (STEME; 9.4 g of a.i./ha): 0%

Cc1nn(C)c(O)c1C(=O)c1ccc(C(F)(F)F)cc1S(C)(=O)=O [A]
Activity against STEME (STEME; 37.5 g of a.i./ha, 100% = plants have died): 50% | Damage of summer wheat (summer wheat; 300 g of a.i./ha): 15%

N#Cc1cc(Br)c(O)c(Br)c1 [Component B1.2, bromoxynil]
Activity against STEME (STEME; 140 g of a.i./ha): 70% | Damage of summer wheat (summer wheat; 1680 g of a.i./ha): 25%

O=C(Nc1ccc(F)cc1F)c1cccnc1Oc1cccc(C(F)(F)F)c1 [Component B4.1, diflufenican]
Activity against STEME (STEME; 75 g of a.i./ha): 70%
